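Interpolation was linear, between the two tested concentrations surrounding the appropriate level; five concentrations were tested over 48 hours in 96-well plates. Abbreviation: GI50, concentration required for 50% inhibition of growth. At the TGI there is no net growth.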
Legend:
Experiment in all cases: NCI anticancer screen, dose series, 48 h
[1] = test system: 786-0 renal
[2] = test system: A549 NSCLC
[3] = test system: ACHN renal
[4] = test system: BT-549 breast
[5] = test system: CAKI-1 renal
[6] = test system: CCRF-CEM leukemia
[7] = test system: COLO 205 colon
[8] = test system: DU-145 prostate
[9] = test system: EKVX NSCLC
[10] = test system: HCC-2998 colon
[11] = test system: HCT-116 colon
[12] = test system: HCT-15 colon
[13] = test system: HL-60(TB) leukemia
[14] = test system: HOP-62 NSCLC
[15] = test system: HT29 colon
[16] = test system: IGROV1 ovarian
[17] = test system: K-562 leukemia
[18] = test system: KM12 colon
[19] = test system: LOX IMVI melanoma
[20] = test system: M14 melanoma
[21] = test system: MALME-3M melanoma
[22] = test system: MCF7 breast
[23] = test system: MDA-MB-231 breast
[24] = test system: MDA-MB-435
[25] = test system: MOLT-4 leukemia
[26] = test system: NCI-H226 lung
[27] = test system: NCI-H23 lung
[28] = test system: NCI-H460 lung
[29] = test system: NCI-H522 lung
[30] = test system: NCI/ADR-RES ovarian
[31] = test system: OVCAR-3 ovarian
[32] = test system: OVCAR-4 ovarian
[33] = test system: OVCAR-5 ovarian
[34] = test system: OVCAR-8 ovarian
[35] = test system: PC-3 prostate
[36] = test system: RPMI-8226 leukemia
[37] = test system: SF-268 CNS
[38] = test system: SF-295 CNS
[39] = test system: SF-539 CNS
[40] = test system: SK-MEL-2 melanoma
[41] = test system: SK-MEL-5 melanoma
[42] = test system: SK-OV-3 ovarian
[43] = test system: SN12C renal
[44] = test system: SNB-19 CNS
[45] = test system: SNB-75 CNS
[46] = test system: SR leukemia
[47] = test system: T-47D breast
[48] = test system: TK-10 renal
[49] = test system: U251 CNS
[50] = test system: UACC-257 melanoma
[51] = test system: UACC-62 melanoma
[52] = test system: UO-31 renal

COc1cc(C(=O)/C=C/c2c(-c3cccs3)nc3sccn23)cc(OC)c1OC gave a GI50 [1] of 1530 nM, a TGI [1] of 5940 nM and a GI50 [2] of 1580 nM. For the same compound, the TGI [2] was 5300 nM, the GI50 [3] was 2160 nM and the TGI [3] was 7520 nM. The GI50 [4] was 1790 nM, the TGI [4] was 11400 nM and the GI50 [5] was 1790 nM. It also gave a TGI [5] of 17000 nM, a GI50 [6] of 565 nM and a TGI [6] greater than 100000 nM. It also gave a GI50 [7] of 1650 nM, a TGI [7] of 3320 nM and a GI50 [8] of 518 nM. It also gave a TGI [8] of 1890 nM, a GI50 [9] of 2410 nM and a TGI [9] greater than 100000 nM. It also gave a GI50 [10] of 814 nM, a TGI [10] of 2000 nM and a GI50 [11] of 1090 nM. It also gave a TGI [11] of 3990 nM, a GI50 [12] of 839 nM and a TGI [12] of 3850 nM. For the same compound, the GI50 [13] was 1190 nM, the TGI [13] was 4460 nM and the GI50 [14] was 2410 nM. For the same compound, the TGI [14] was 6440 nM, the GI50 [15] was 1120 nM and the TGI [15] was 3960 nM. For the same compound, the GI50 [16] was 462 nM, the TGI [16] was 1370 nM and the GI50 [17] was 445 nM. It also gave a TGI [17] greater than 100000 nM, a GI50 [18] of 342 nM and a TGI [18] of 1090 nM. For the same compound, the GI50 [19] was 1060 nM, the TGI [19] was 2500 nM and the GI50 [20] was 2510 nM. It also gave a TGI [20] of 27200 nM, a GI50 [21] of 3280 nM and a TGI [21] of 43400 nM. It also gave a GI50 [22] of 724 nM, a TGI [22] of 88400 nM and a GI50 [23] of 1550 nM. For the same compound, the TGI [23] was 9270 nM, the GI50 [24] was 592 nM and the TGI [24] was 60100 nM. The GI50 [25] was 1020 nM, the TGI [25] was 4450 nM and the GI50 [26] was 2460 nM. The TGI [26] was 7460 nM, the GI50 [27] was 814 nM and the TGI [27] was 6420 nM. It also gave a GI50 [28] of 600 nM, a TGI [28] of 1990 nM and a GI50 [29] of 260 nM. The TGI [29] was 866 nM, the GI50 [30] was 464 nM and the TGI [30] was 4060 nM. It also gave a GI50 [31] of 1010 nM, a TGI [31] of 2730 nM and a GI50 [32] of 1970 nM. For the same compound, the TGI [32] was 53200 nM, the GI50 [33] was 4740 nM and the TGI [33] was 27800 nM. For the same compound, the GI50 [34] was 651 nM, the TGI [34] was 3700 nM and the GI50 [35] was 731 nM. The TGI [35] was 6170 nM, the GI50 [36] was 448 nM and the TGI [36] was 3680 nM. The GI50 [37] was 1320 nM, the TGI [37] was 6300 nM and the GI50 [38] was 955 nM. The TGI [38] was 9940 nM, the GI50 [39] was 1740 nM and the TGI [39] was 4260 nM. The GI50 [40] was 319 nM, the TGI [40] was 1280 nM and the GI50 [41] was 1060 nM. For the same compound, the TGI [41] was 2490 nM, the GI50 [42] was 2150 nM and the TGI [42] was 6150 nM. It also gave a GI50 [43] of 1920 nM, a TGI [43] of 10800 nM and a GI50 [44] of 2140 nM. For the same compound, the TGI [44] was 13500 nM, the GI50 [45] was 1280 nM and the TGI [45] was 8160 nM. The GI50 [46] was 264 nM, the TGI [46] was 2470 nM and the GI50 [47] was 789 nM. It also gave a TGI [47] of 4710 nM, a GI50 [48] of 2080 nM and a TGI [48] greater than 100000 nM. The GI50 [49] was 904 nM, the TGI [49] was 5340 nM and the GI50 [50] was 1140 nM. It also gave a TGI [50] of 3710 nM, a GI50 [51] of 1380 nM and a TGI [51] of 3720 nM. For the same compound, the GI50 [52] was 784 nM and the TGI [52] was 4700 nM.

Source: PubChem BioAssay (NCI)
